From US4335247A, “Novel nitrosourea derivatives and process for their production” (Kowa Co., Ltd., priority 1980, dated 1982)
Like-named read-outs stand apart in the source and are kept apart here.

Key:
P388 cancer cell = experiment: Anti-tumor test, P388-inoculated mice (survival effect); type: in vivo; conditions: Mus musculus, P388, ip, intraperitoneal, CDF1 mice; for response vs control in vivo at 12.5 mg/kg / responders at 12.5 mg/kg: 12.5 mg/Kg/day; for response vs control in vivo at 25 mg/kg / responders at 25 mg/kg: 25 mg/Kg/day; for response vs control in vivo at 50 mg/kg / responders at 50 mg/kg: 50 mg/Kg/day
Method: Each experimental group was composed of six CDF1 mice. The mice were inoculated intraperitoneally with 10^6 P388 cancer cell, and the test compounds suspended in a gum arabic were administered intraperitoneally to the animals 24 hours and 5 days, respectively, after the inoculation. The survival effect of each of the compounds was expressed by the percentage of the survival days of the treated animals in each group relative to those of the control animals.

[1] = Acute toxicity (median lethal dose, intraperitoneal); conditions: mouse, in vivo, ip; intraperitoneal injection, ddy mice, Litchfield-Wilcoxon method
Method: The median lethal dose (LD50) of each of the test compounds was determined by the Litchfield-Wilcoxon method after the intraperitoneal injection of the compound into ddy mice.

[2] = 24 hours and 5 days after inoculation, read-out: Survival Effect T/C
[3] = of six mice, read-out: Cure (converted)
[4] = of six mice, read-out: Tumored Survivors (converted)
[5] = 100 mg/Kg/day, 24 hours and 5 days after inoculation, read-out: Survival Effect T/C

C[C@@H](O)[C@H](NC(=O)N(CCCl)N=O)C(=O)Nc1nncs1 (relative stereo) [L]
response vs control in vivo at 12.5 mg/kg (P388 cancer cell; [2]): 153% | response vs control in vivo at 25 mg/kg (P388 cancer cell; [2]): 93% | responders at 25 mg/kg (P388 cancer cell; [3]): 16.7% | response vs control in vivo at 50 mg/kg (P388 cancer cell; [2]): 81% | LD50 [1]: 65 mg/kg

O=NN(CCCl)C(=O)Nc1nncs1 [A]
response vs control in vivo at 12.5 mg/kg (P388 cancer cell; [2]): 170% | response vs control in vivo at 25 mg/kg (P388 cancer cell; [2]): 173% | response vs control in vivo at 50 mg/kg (P388 cancer cell; [2]): 172% | LD50 [1]: 78 mg/kg

CC(C)[C@H](NC(=O)N(CCCl)N=O)C(=O)O [B]
response vs control in vivo at 25 mg/kg (P388 cancer cell; [2]): 230% | response vs control in vivo at 50 mg/kg (P388 cancer cell; [2]): 297% | responders at 50 mg/kg (P388 cancer cell; [3]): 16.7% | responders at 50 mg/kg (P388 cancer cell; [4]): 16.7% | LD50 [1]: 72 mg/kg

CC(C)[C@H](NC(=O)N(CCCl)N=O)C(=O)Nc1nncs1 [D]
response vs control in vivo at 6.25 mg/kg (P388 cancer cell; 6.25 mg/Kg/day, 24 hours and 5 days after inoculation, read-out: Survival Effect T/C): 223% | response vs control in vivo at 12.5 mg/kg (P388 cancer cell; [2]): 281% | response vs control in vivo at 25 mg/kg (P388 cancer cell; [2]): 291% | responders at 25 mg/kg (P388 cancer cell; [3]): 83.3% | LD50 [1]: 49 mg/kg

CC(C)CC(NC(=O)N(CCCl)N=O)C(=O)Nc1nncs1 (stereo not drawn) [E]
response vs control in vivo at 12.5 mg/kg (P388 cancer cell; [2]): 220% | response vs control in vivo at 25 mg/kg (P388 cancer cell; [2]): 303% | responders at 25 mg/kg (P388 cancer cell; [3]): 33.3% | responders at 25 mg/kg (P388 cancer cell; [4]): 16.7% | response vs control in vivo at 50 mg/kg (P388 cancer cell; [2]): 303% | responders at 50 mg/kg (P388 cancer cell; [3]): 83.3% | LD50 [1]: 82 mg/kg

CC(C)C[C@H](NC(=O)N(CCCl)N=O)C(=O)Nc1nncs1 [F]
response vs control in vivo at 12.5 mg/kg (P388 cancer cell; [2]): 292% | responders at 12.5 mg/kg (P388 cancer cell; [3]): 16.7% | responders at 12.5 mg/kg (P388 cancer cell; [4]): 16.7% | response vs control in vivo at 25 mg/kg (P388 cancer cell; [2]): 303% | responders at 25 mg/kg (P388 cancer cell; [3]): 50% | responders at 25 mg/kg (P388 cancer cell; [4]): 33.3% | LD50 [1]: 85 mg/kg

CC[C@H](C)[C@H](NC(=O)N(CCCl)N=O)C(=O)Nc1nncs1 [G]
response vs control in vivo at 12.5 mg/kg (P388 cancer cell; [2]): 247% | responders at 12.5 mg/kg (P388 cancer cell; [3]): 16.7% | response vs control in vivo at 25 mg/kg (P388 cancer cell; [2]): 297% | responders at 25 mg/kg (P388 cancer cell; [3]): 16.7% | responders at 25 mg/kg (P388 cancer cell; [4]): 50% | response vs control in vivo at 50 mg/kg (P388 cancer cell; [2]): 297% | responders at 50 mg/kg (P388 cancer cell; [3]): 50% | responders at 50 mg/kg (P388 cancer cell; [4]): 33.3% | LD50 [1]: 78 mg/kg

CSCC[C@H](NC(=O)N(CCCl)N=O)C(=O)Nc1nncs1 [H]
response vs control in vivo at 12.5 mg/kg (P388 cancer cell; [2]): 235% | responders at 12.5 mg/kg (P388 cancer cell; [3]): 16.7% | response vs control in vivo at 25 mg/kg (P388 cancer cell; [2]): 294% | responders at 25 mg/kg (P388 cancer cell; [3]): 50% | responders at 25 mg/kg (P388 cancer cell; [4]): 33.3% | response vs control in vivo at 50 mg/kg (P388 cancer cell; [2]): 294% | responders at 50 mg/kg (P388 cancer cell; [3]): 83.3% | responders at 50 mg/kg (P388 cancer cell; [4]): 16.7% | LD50 [1]: 67 mg/kg

O=NN(CCCl)C(=O)N[C@@H](C(=O)Nc1nncs1)c1ccccc1 [I]
response vs control in vivo at 12.5 mg/kg (P388 cancer cell; [2]): 297% | responders at 12.5 mg/kg (P388 cancer cell; [3]): 33.3% | responders at 12.5 mg/kg (P388 cancer cell; [4]): 16.7% | response vs control in vivo at 25 mg/kg (P388 cancer cell; [2]): 297% | responders at 25 mg/kg (P388 cancer cell; [3]): 33.3% | responders at 25 mg/kg (P388 cancer cell; [4]): 33.3% | response vs control in vivo at 50 mg/kg (P388 cancer cell; [2]): 297% | responders at 50 mg/kg (P388 cancer cell; [3]): 83.3% | LD50 [1]: 69 mg/kg

O=NN(CCCl)C(=O)N[C@@H](Cc1ccccc1)C(=O)Nc1nncs1 [J]
response vs control in vivo at 12.5 mg/kg (P388 cancer cell; [2]): 297% | responders at 12.5 mg/kg (P388 cancer cell; [3]): 33.3% | responders at 12.5 mg/kg (P388 cancer cell; [4]): 16.7% | response vs control in vivo at 25 mg/kg (P388 cancer cell; [2]): 297% | responders at 25 mg/kg (P388 cancer cell; [3]): 83.3% | response vs control in vivo at 50 mg/kg (P388 cancer cell; [2]): 297% | responders at 50 mg/kg (P388 cancer cell; [3]): 66.7% | responders at 50 mg/kg (P388 cancer cell; [4]): 16.7% | LD50 [1]: 74 mg/kg

O=NN(CCCl)C(=O)NC1(C(=O)Nc2nncs2)CCCC1 [K]
response vs control in vivo at 12.5 mg/kg (P388 cancer cell; [2]): 175% | response vs control in vivo at 25 mg/kg (P388 cancer cell; [2]): 176% | response vs control in vivo at 50 mg/kg (P388 cancer cell; [2]): 176% | LD50 [1]: 53 mg/kg

O=NN(CCCl)C(=O)N[C@@H](Cc1c[nH]c2ccccc12)C(=O)Nc1nncs1 [M]
response vs control in vivo at 25 mg/kg (P388 cancer cell; [2]): 294% | responders at 25 mg/kg (P388 cancer cell; [3]): 83.3% | response vs control in vivo at 50 mg/kg (P388 cancer cell; [2]): 294% | responders at 50 mg/kg (P388 cancer cell; [3]): 50% | responders at 50 mg/kg (P388 cancer cell; [4]): 33.3% | response vs control in vivo at 100 mg/kg (P388 cancer cell; [5]): 107% | responders at 100 mg/kg (P388 cancer cell; 100 mg/Kg/day, of six mice, read-out: Cure (converted)): 16.7% | LD50 [1]: 73 mg/kg

CC(C)[C@@H](NC(=O)N(CCCl)N=O)C(=O)Nc1nncs1 [N]
response vs control in vivo at 25 mg/kg (P388 cancer cell; [2]): 217% | responders at 25 mg/kg (P388 cancer cell; [3]): 16.7% | response vs control in vivo at 50 mg/kg (P388 cancer cell; [2]): 99% | responders at 50 mg/kg (P388 cancer cell; [3]): 33.3% | LD50 [1]: 68 mg/kg

CC(C)C[C@@H](NC(=O)N(CCCl)N=O)C(=O)Nc1nncs1 [O]
response vs control in vivo at 25 mg/kg (P388 cancer cell; [2]): 190% | response vs control in vivo at 50 mg/kg (P388 cancer cell; [2]): 217% | response vs control in vivo at 100 mg/kg (P388 cancer cell; [5]): 188% | LD50 [1]: 61 mg/kg
